Our source for the IC50 and Ki values is patent US10570121B2, “Substituted dihydroisoquinolinone compounds” (priority 2014, dated 2020).

Holding throughout (format): biochemical
The target in assay [1] is T1, WT EZH2 (Homo sapiens (Human), UniProt Q15910). Put plainly: WT EZH2 nucleosome assay. The settings on record: WT EZH2 Nucleosome assay IC50 (μM), PRC2 4-protein complex 4 nM, 1.5 μM SAM, HeLa oligonucleosomes. As for the experimental part:
The genes for EZH2, EED, SUZ12, and RBBP4 proteins were cloned into pBacPAK9 vectors (Clontech). RBBP4 was FLAG tagged on the N-terminal end. The baculovirus expressions of these proteins were used to co-infect SF9 insect cells. Insect cell pellets were lysed in a buffer containing 25 mM Tris pH8.0, 300 mM NaCl, 0.5 mM TCEP, complete EDTA-free protease inhibitor (Roche), 0.1% NP-40. The supernatant from the lysate was incubated with FLAG® M2 antibody resin (Sigma). The resin was washed on the chromatography column and eluted with 0.2 mg/ml FLAG peptide. The elute was incubated with omnicleave nucleases (Epicentre Technologies) at 4° C. overnight, then concentrated and loaded onto a Superdex 200 (GE Healthcare) column. The Superdex 200 column was eluted with 25 mM Tris pH8.0, 150 mM NaCl, 0.5 mM TCEP. Fractions containing the PRC2 complex were pooled.
A. Compound preparation • 1.
B. Reagent preparation • 1. […] Dilute TCA to 20% in DI water
C. Enzyme reaction • 1. […] Some compounds were tested under high SAM conditions.
D. Data analysis • 1. IC50 values were determined by fitting the data to a 4-parameter IC50 equation using proprietary curve fitting software. • 2. For compounds tested under high SAM conditions, Ki^app values were obtained by fitting the dose response curve to a model for competitive inhibition using proprietary curve fitting software. Preparation of HeLa Oligonucleosomes: Reagents • Cell Pellet: 15 L HeLa S3 (Accelgen)+6 L HeLa S3 (in house) • Mnase (Worthington Biochemicals) Equipment • SW-28 Rotor • Dounce Homogenizer/B Pestle Buffers • Lysis: 20 mM Hepes pH 7.5, 0.25M Sucrose, 3 mM MgCl2, 0.5% Nonidet P-40, 0.5 mM TCEP, 1 Roche Protease Tablet • B: 20 mM Hepes pH7.5, 3 mM MgCl2, 0.5 mM EDTA, 0.5 mM TCEP, 1 Roche Protease Tablet • MSB: 20 mM Hepes pH7.5, 0.4 M NaCl, 1 mM EDTA, 5% v/v Glycerol, 0.5 mM TCEP, 0.2 mM PMSF • LSB: 20 mM Hepes pH7.5, 0.1M NaCl, 1 mM EDTA, 0.5 mM TCEP, 0.2 mM PMSF • NG: 20 mM Hepes pH7.5, 1 mM EDTA, 0.4 m NaCl, 0.2 mM PMSF, 0.5 mM TCEP • Storage: 20 mM Hepes pH7.5, 1 mM EDTA, 10% Glycerol, 0.2 mM PMSF, 0.5 mM TCEP Protocol

A further assay deals with EZH2 Mutant Y641N (Homo sapiens (Human), UniProt Q15910, Y641N). Put plainly: EZH2 Mutant Y641N nucleosome assay. The settings on record: EZH2 Mutant Y641N Nucleosome assay IC50 (μM), PRC2 4-protein complex 6 nM, 1.5 μM SAM, HeLa oligonucleosomes.
Assay [2] has as its target T1, WT EZH2. Put plainly: WT EZH2 nucleosome assay (10X SAM, high SAM conditions). The settings on record: WT EZH2 Nucleosome assay (10X SAM) Ki (μM), 15 uM SAM, Ki app from competitive inhibition fit.

T1 sequence (Q15910 whole entry, looked up): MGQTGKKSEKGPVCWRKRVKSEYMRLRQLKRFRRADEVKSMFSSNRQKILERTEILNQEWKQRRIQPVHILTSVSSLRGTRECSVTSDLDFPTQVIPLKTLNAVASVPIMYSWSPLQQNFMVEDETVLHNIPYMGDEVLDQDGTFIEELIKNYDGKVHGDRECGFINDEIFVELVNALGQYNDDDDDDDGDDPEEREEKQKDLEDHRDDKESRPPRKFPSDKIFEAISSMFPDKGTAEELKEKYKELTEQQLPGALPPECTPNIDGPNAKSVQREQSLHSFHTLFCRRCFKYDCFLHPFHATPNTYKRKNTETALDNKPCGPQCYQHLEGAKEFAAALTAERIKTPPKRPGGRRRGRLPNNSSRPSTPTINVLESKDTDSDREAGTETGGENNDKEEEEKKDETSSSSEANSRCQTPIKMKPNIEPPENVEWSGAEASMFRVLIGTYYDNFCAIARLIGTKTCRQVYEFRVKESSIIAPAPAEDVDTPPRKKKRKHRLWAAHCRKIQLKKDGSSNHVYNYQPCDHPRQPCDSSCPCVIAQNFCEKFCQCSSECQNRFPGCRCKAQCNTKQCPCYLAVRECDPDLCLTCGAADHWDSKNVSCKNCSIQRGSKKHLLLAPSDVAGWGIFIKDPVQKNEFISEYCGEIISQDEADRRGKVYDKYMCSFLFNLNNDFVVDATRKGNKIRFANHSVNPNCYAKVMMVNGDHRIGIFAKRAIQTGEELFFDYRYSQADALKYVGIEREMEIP
T1 sequence (O75530 whole entry partner, looked up): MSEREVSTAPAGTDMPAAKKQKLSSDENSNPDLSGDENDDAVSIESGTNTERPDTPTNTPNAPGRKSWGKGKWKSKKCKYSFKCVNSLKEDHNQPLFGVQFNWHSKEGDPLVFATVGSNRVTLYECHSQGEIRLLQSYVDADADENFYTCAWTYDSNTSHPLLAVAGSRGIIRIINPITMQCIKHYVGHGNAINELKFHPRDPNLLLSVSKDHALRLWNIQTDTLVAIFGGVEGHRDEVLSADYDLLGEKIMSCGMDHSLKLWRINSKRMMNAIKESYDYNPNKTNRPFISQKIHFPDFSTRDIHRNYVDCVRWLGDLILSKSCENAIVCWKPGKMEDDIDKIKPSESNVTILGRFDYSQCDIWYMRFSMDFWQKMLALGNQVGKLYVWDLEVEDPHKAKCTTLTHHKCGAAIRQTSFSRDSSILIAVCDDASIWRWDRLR
T1 sequence (Q15022 whole entry partner, looked up): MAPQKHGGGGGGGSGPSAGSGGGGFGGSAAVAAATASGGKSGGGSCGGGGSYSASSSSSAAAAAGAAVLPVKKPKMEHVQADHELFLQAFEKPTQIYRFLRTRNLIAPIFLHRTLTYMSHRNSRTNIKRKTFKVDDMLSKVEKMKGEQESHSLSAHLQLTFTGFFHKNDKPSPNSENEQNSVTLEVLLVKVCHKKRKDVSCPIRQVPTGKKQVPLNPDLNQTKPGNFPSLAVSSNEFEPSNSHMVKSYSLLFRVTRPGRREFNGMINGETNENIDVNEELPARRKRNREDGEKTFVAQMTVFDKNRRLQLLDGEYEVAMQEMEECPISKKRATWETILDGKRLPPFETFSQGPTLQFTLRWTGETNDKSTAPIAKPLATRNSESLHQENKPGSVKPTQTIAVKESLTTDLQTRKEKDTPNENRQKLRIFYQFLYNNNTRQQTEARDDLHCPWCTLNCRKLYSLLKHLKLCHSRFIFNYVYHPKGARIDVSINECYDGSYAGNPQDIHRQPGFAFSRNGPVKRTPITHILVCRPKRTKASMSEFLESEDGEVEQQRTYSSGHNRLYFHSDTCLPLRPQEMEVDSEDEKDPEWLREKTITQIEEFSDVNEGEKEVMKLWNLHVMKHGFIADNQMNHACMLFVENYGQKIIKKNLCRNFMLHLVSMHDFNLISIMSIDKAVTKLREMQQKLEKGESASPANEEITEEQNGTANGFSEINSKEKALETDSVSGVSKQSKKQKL
T1 sequence (Q09028 whole entry partner, looked up): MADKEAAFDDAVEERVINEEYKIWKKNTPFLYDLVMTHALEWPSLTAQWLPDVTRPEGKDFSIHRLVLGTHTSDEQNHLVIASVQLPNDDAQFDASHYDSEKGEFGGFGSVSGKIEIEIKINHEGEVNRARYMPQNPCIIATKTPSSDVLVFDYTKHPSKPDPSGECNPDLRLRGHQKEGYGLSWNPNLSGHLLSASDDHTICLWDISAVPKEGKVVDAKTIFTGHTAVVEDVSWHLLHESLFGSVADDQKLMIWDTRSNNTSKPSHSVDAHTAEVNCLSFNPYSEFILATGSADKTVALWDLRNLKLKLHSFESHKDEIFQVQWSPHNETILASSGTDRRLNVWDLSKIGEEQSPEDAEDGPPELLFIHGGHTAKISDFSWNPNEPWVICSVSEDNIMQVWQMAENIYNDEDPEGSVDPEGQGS
Sequence of EZH2 Mutant Y641N (Q15910 whole entry Y641N, looked up): as the sequence (Q15910 whole entry, looked up) above, with Y641N counted along it
Sequence of EZH2 Mutant Y641N (O75530 whole entry partner, looked up): as the sequence (O75530 whole entry partner, looked up) above
Sequence of EZH2 Mutant Y641N (Q15022 whole entry partner, looked up): as the sequence (Q15022 whole entry partner, looked up) above
Sequence of EZH2 Mutant Y641N (Q09028 whole entry partner, looked up): as the sequence (Q09028 whole entry partner, looked up) above

For the compound `COC(c1cc(Cl)c2c(c1Cl)C(=O)N(Cc1c(C)cc(C)[nH]c1=O)CC2)C1CCN(C(=O)CO)CC1` (single isomer, unassigned) [Example 36, 5,8-dichloro-2-[(4,6-dimethyl-2-oxo-1,2-dihydropyridin-3-yl)methyl]-7-{[1-(hydroxyacetyl)piperidin-4-yl](methoxy)methyl}-3,4-dihydroisoquinolin-1(2H)-one], the IC50 against WT EZH2 [1] turned out to be 0.105 µM; on EZH2 Mutant Y641N, 0.443 µM. On WT EZH2 [2], the Ki turned out to be 0.136 µM.

Broadly, the IC50 is the point on the concentration scale where inhibition reaches its midpoint. Higher therefore signals weaker potency.
